Results on 7 molecules are retold here after article PMC4734850, “Tyrosinase inhibitory activity of flavonoids from Artocarpus heterophyllous” (Chemistry Central Journal, 2016).

Test [1] has as its target T1, Tyrosinase (EC 1.14.18.1) from mushroom (Agaricus bisporus, UniProt C7FF04).
T1 construct: purchased Sigma Chemical Co. (St. Louis, MO, USA)
The test is described as follows: Tyrosinase inhibitory assay (L-DOPA oxidation, absorbance at 475 nm). The class given is biochemical. The method, then: Tyrosinase (EC 1.14.18.1) from mushroom (3933 U/mL) and L-dihydroxyphenylalanine (L-DOPA) were obtained from Sigma Chemical Co. (St. Louis, MO, USA). […] Other chemicals were of the highest grade available.
All the samples were first dissolved in DMSO and used for the actual experiment at concentrations of […] (or µM for pure compounds). The tyrosinase inhibitory activity assay was performed as previously described by Arung et al.. The assay mixtures consisting of 1900 µL of test solution in 0.1 M phosphate buffer pH 6.8 and 100 µL of enzyme solution (15 U/mL in 0.1 M phosphate buffer pH 6.8) was prepared immediately before use. After preincubation at room temperature for 30 min, the reaction was initiated by the addition of 1000 µL of substrate solution (1.5 mM L-DOPA in 0.1 M phosphate buffer pH 6.8). The assay mixture was incubated at room temperature for 7 min, and the absorbance at 475 nm was measured with a Shimadzu UV-1800 spectrophotometer. […] Tyrosinase inhibitory activity was expressed as the percentage inhibitory of enzyme tyrosinase in the above assay system, calculated as (1 − B/A) × 100, where A and B are the activities of the enzyme without and with test material. IC50 values were calculated from the mean values of data from four determinations.

The next test concerns the target T2, mushroom tyrosinase (Agaricus bisporus, UniProt C7FF04).
T2 construct: purchased Sigma Chemical Co. (St. Louis, MO, USA)
The test is described as follows: Inhibition mechanism, Lineweaver–Burk plots. To be noted: 30 °C, pH 6.8. The class given is biochemical. The method, then: Fig. 3 Lineweaver–Burk plots for type of inhibition of mushroom tyrosinase (10 U/mL) by artocaepin E (1) for the catalysis of L-DOPA (0.2, 0.3, 0.4, 0.5, and 0.6 mM) at 30 °C, pH 6.8. Concentration of these compounds for curves I0.0, I5.0, I7.0, and I10.0 were 0.0, 5.0, 7.0, and 10.0 μM, respectively. The inset represents the plot of these compounds for determining the inhibition constant (Ki). The line is drawn using a linear lest squares fit
The dependence of absorbance (475 nm) on time was measured, and the reaction rate was calculated for all reactions (uninhibited and inhibited). Then, a Lineweaver–Burk plot was constructed, and Km and Vm values were calculated. Each measurement was performed in duplicate.

Setting [2] is: mushroom tyrosinase, substrate L-DOPA, 0.1 M phosphate buffer pH 6.8, room temperature, read-out: Tyrosinase inhibitory activity IC50.

Read-outs that look alike come from different tables or passages of the source.

T1 sequence (C7FF04 1-392 limits assumed): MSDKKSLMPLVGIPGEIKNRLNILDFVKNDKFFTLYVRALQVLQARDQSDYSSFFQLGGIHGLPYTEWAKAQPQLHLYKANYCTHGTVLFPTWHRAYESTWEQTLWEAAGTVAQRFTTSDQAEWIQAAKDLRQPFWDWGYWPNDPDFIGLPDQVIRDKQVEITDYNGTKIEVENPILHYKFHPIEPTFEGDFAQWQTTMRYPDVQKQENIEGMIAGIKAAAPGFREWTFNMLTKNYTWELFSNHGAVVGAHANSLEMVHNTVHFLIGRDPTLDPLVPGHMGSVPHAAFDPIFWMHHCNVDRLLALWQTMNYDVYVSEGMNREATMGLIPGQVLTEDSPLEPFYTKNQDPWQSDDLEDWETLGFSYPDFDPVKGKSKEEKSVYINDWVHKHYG
T2 sequence (C7FF04 1-392 limits assumed): as above

For orientation: IC50 means the point on the concentration scale where inhibition reaches its midpoint. As to `O=c1cc(-c2ccc(O)cc2O)oc2cc(O)cc(O)c12` [Compound 3, norartocarpetin], the IC50 in test [1] (setting [2]) was over 50 µM.

As for `COc1cc(O)c2c(c1)O[C@H](c1ccc(O)cc1O)CC2=O` [Compound 4, artocarpanone], the IC50 in test [1] (setting [2]) stood at 2 ± 0.1 µM.

Regarding `O=C1c2c(O)cc(O)cc2O[C@H](c2ccc(O)cc2O)[C@H]1O` [Compound 7, dihydromorin], the IC50 in test [1] (setting [2]) was over 50 µM.

Consider `O=C1CC(c2ccc(O)cc2O)Oc2cc(O)cc(O)c21` (stereo not shown) [Compound 6, steppogenin], for which, in test [1] (setting [2]), the IC50 worked out at 7.5 ± 0.5 µM. Besides, in test [1] (ratio of tyrosinase IC50 values, 6 vs 4), the “inhibitory activity relative to 4” value is listed as 3.75 fold.

As for `C/C(=C\Cc1c(O)ccc2c1O[C@H](c1ccc(O)cc1)CC2=O)CO` [Compound 2, artocaepin F], the IC50 in test [1] (setting [2]) is over 50 µM.

The molecule `O=C1C[C@@H](c2ccc(O)cc2)Oc2cc(O)ccc21` [Compound 5, liquiritigenin] registered an IC50 in test [1] of 22 ± 2.5 µM.

What is called Ki is a dissociation constant, usually derived from enzyme kinetics or from competition with a known ligand. With `C/C(=C\Cc1c(O)cc2oc(-c3ccc(O)cc3O)cc(=O)c2c1O)COC(=O)/C=C/c1ccc(O)cc1` [Compound 1, artocaepin E], the type of inhibition entry on mushroom tyrosinase (Lineweaver–Burk plots, L-DOPA substrate) is “competitive inhibition”. The Ki at mushroom tyrosinase (mushroom tyrosinase 10 U/mL, L-DOPA 0.2-0.6 mM, read-out: inhibition constant (Ki)) was determined as 6.23 µM. Besides, in test [1] (setting [2]), the IC50 was 6.7 ± 0.8 µM.
